Reference: patent publication US9295669B2, “Combination therapy for proliferative disorders” (Hoffman La-Roche Inc., priority 2010, dated 2016)
Read-outs that look alike come from different tables or passages of the source.

Columns and labels:
[1] = format: in vivo; details: monotherapy, 10 mice
Method: Female athymic Crl:NU-Foxn1nu mice were used for efficacy testing (Charles River, Wilmington, Mass., USA). Mice were 10-12 weeks of age and weighed 23-25 grams. The health of the mice was assessed daily by observation and analysis of blood samples taken from sentinel animals on shared shelf racks. All animals were allowed to acclimate and recover from shipping-related stress for one week. […] Cages, bedding and water bottles were autoclaved before use and changed weekly. All animal experiments were conducted in accordance with the Guide for the Care and Use of Laboratory Animals, local regulations, and protocols approved by the Roche Animal Care and Use Committee in our AAALAC accredited facility.
Treatment began on day 5 post-cell implant and ended at day 18 post-cell implant.
(§1) The peginterferon alfa-2a solution and its corresponding vehicle were dosed using a sterile 1 cc syringe and 26-gauge needle (0.2 ml/animal) once weekly on days 5 and 12 post-cell implant for a total of two injections.
Weight loss was graphically represented as percent change in mean group body weight, using the formula: ((W−W0)/W0)×100, where ‘W’ represents mean body weight of the treated group at a particular day, and ‘W0’ represents mean body weight of the same treated group at initiation of treatment.
Treatment began on day 6 post-cell implant and ended at day 19 post-cell implant.
(§2) The peginterferon alfa-2a solution and its corresponding vehicle were dosed using a sterile 1 cc syringe and 26-gauge needle (0.2 ml/animal) once weekly on days 6 and 13 post-cell implant for a total of two injections.

[2] = tested on: human LOX-IMVI melanoma cell xenografts; experiment: Tumor growth inhibition in mice with human LOX-IMVI melanoma xenografts; format: in vivo; details: monotherapy; for % Inhibition end of study Day: 19 / % T/C end of study Day: 19 / Average % Regression per Group / Mean Tumor Volume End Study DAY: 19 / % Inhibition end of study Day: 18 / % T/C end of study Day: 18 / Mean Tumor Volume End Study DAY: 18 / % Tumor Growth Inhibition: 10 mice; for Complete Regression / Partial Regression: animals out of 10 per group
Method: (§3) Mice were implanted with human LOX-IMVI melanoma cell xenografts. The mice, cell line used, and implantation are described below.
(§4) Female athymic Crl:NU-Foxn1nu mice were used for efficacy testing (Charles River, Wilmington, Mass., USA). Mice were 10-12 weeks of age and weighed 23-25 grams. The health of the mice was assessed daily by observation and analysis of blood samples taken from sentinel animals on shared shelf racks. All animals were allowed to acclimate and recover from shipping-related stress for one week. Autoclaved water and irradiated food (5058-ms Pico Lab mouse chow, Purina Mills, Richmond, Ind., USA) were provided ad libitum, and the animals were kept in a 12 hour light and dark cycle. Cages, bedding and water bottles were autoclaved before use and changed weekly. All animal experiments were conducted in accordance with the Guide for the Care and Use of Laboratory Animals, local regulations, and protocols approved by the Roche Animal Care and Use Committee in our AAALAC accredited facility.
(§5) LOX-IMVI cells (aka LOX, National Cancer Institute—Bethesda, Md.) were grown in RPMI-1640 medium supplemented with 10% Fetal Bovine Serum (FBS) and 1% of […] L-glutamine, scaled up, harvested, and prepared so that each mouse received 2×10^6 cells/0.2 ml calcium and magnesium free phosphate-buffered saline (PBS). Cells were implanted in the subcutaneous right flank of each mouse.
(§6) Mice implanted with human xenografts were randomized into eight groups of 10 mice each according to tumor volume so that all groups had similar starting mean tumor volumes. The approximate starting mean tumor volume for this study was 130 mm^3.
(§7) Treatment began on day 5 post-cell implant and ended at day 18 post-cell implant. Four groups of mice developed in example 3 were used. Each group was subjected to a different therapy as follows: • (1) mice receiving Compound I vehicle bid po and peginterferon alfa-2a vehicle 1×/wk sc; • (2) mice receiving Compound I at 75 mg/kg bid bid po; • (3) mice receiving peginterferon alfa-2a at 900 μg 1×/wk sc; and • (4) mice receiving Compound I at 75 mg/kg bid bid po and peginterferon alfa-2a at 900 μg 1×/wk sc.
as §1, with “The Compound I suspension and its corresponding vehicle were dosed using a sterile 1 cc syringe and 18-gauge gavage needle (0.2 ml/animal) twice daily. The” for “The”
Tumor measurements were taken once or twice per week. All animals were individually followed throughout the experiment.
Efficacy data was graphically represented as the mean tumor volume±standard error of the mean (SEM). In addition, tumor volumes of treated groups were presented as percentages of tumor volumes of the control groups (% T/C), using the formula: 100×((T−T0)/(C−C0)), where T represented mean tumor volume of a treated group on a specific day during the experiment, T0 represented mean tumor volume of the […] on the first day of treatment; C represented mean tumor volume of a control group on the specific day during the experiment, and Co represented mean tumor volume of the […] on the first day of treatment.
Tumor volume (in cubic millimeters) was calculated using the ellipsoid formula: (D×(d^2))/2, where “D” represents the large diameter of the tumor and “d” represents the small diameter.
Also, tumor regression and/or percent change in tumor volume was calculated using the formula: ((T−T0)/T0)×100, where ‘T’ represents mean tumor volume of the treated group at a particular day, and ‘T0’ represents mean tumor volume of the same treated group at initiation of treatment.
Statistical analysis was determined by the rank sum test and One Way Anova and a post-hoc Bonferroni t-test (SigmaStat, version 2.0, Jandel Scientific, San Francisco, Calif., USA). […]

[3] = tested on: human LOX-IMVI melanoma cell xenografts; experiment: Assessment of survival (increased life span) in mice with human LOX-IMVI melanoma xenografts; format: in vivo; details: monotherapy; for 50% Treatment Days (median survival day of treated group): 50% vehicle days 14; for % ILS (increased life span): versus vehicle group
Method: as §3, §4, §5, §6, §7
as §1, with “The Compound I suspension and its corresponding vehicle were dosed using a sterile 1 cc syringe and 18-gauge gavage needle (0.2 ml/animal) twice daily. The” for “The”
For survival assessment, the percent of increased life space (ILS) was calculated as: 100×[(median survival day of treated group−median survival day of control group)/median survival day of control group]. Median survival was determined utilizing Kaplan Meier survival analysis. Survival in treated groups was statistically compared with the vehicle group and survival comparisons were done between groups using the log-rank test (Graph Pad Prism, La Jolla, Calif., USA). Differences between groups were considered significant when the probability value (p) was ≦0.05.
Treatment began on day 6 post-cell implant and ended at day 19 post-cell implant. Four groups of mice developed in example 3 were used. The treatment groups were as follows: • (1) mice receiving Compound I vehicle bid po and peginterferon alfa-2a vehicle 1×/wk sc; • (2) mice receiving Compound I at 25 mg/kg bid po; • (3) mice receiving peginterferon alfa-2a at 450 μg 1×/wk sc; and • (4) mice receiving Compound I at 25 mg/kg bid and peginterferon alfa-2a at 450 μg 1×/wk.
as §2, with “The Compound I suspension and its corresponding vehicle were dosed using a sterile 1 cc syringe and 18-gauge gavage needle (0.2 ml/animal) twice daily. The” for “The”

[4] = Compound I 25 mg/kg bid po, days 6-19 post-cell implant
[5] = Compound I 75 mg/kg bid po, days 5-18 post-cell implant
[6] = peginterferon alfa-2a 450 μg 1×/wk sc (days 6 and 13)
[7] = peginterferon alfa-2a 900 μg 1×/wk sc (days 5 and 12)

## CCCS(=O)(=O)Nc1ccc(F)c(C(=O)c2c[nH]c3ncc(-c4ccc(Cl)cc4)cc23)c1F [Compound I, Propane-1-sulfonic acid{3-[5-(4-chloro-phenyl)-1H-pyrrolo[2,3-b]pyridine-3-carbonyl]-2,4-difluoro-phenyl}-amide]
[1]; [4]
  # animals ≧ 20% BWL: 0
  % Change in Body Weight at end of Study Day 19: 1.3%
  Max % Weight Gain: 1.3%
  Max % Weight Loss: −1.0%
  Mortality: 0
[1]; [5]
  # animals ≧ 20% BWL: 0
  % Change in Body Weight at end of Study Day 18: −7.0%
  Max % Weight Gain: −3.6%
  Max % Weight Loss: −7.0%
  Mortality: 0
[2]; [4]
  % Inhibition end of study Day: 19: regression
  % T/C end of study Day: 19: −5%
  Average % Regression per Group: 100%
  Mean Tumor Volume End Study DAY: 19: 0.00 mm^3
  Complete Regression: 10
  Partial Regression: 0
[2]; [5]
  % Inhibition end of study Day: 18: regression
  % T/C end of study Day: 18: −4%
  Average % Regression per Group: 100%
  Mean Tumor Volume End Study DAY: 18: 0.00 mm^3
  Complete Regression: 10
  Partial Regression: 0
[3]; [4]
  50% Treatment Days (median survival day of treated group): 59 days
  % ILS (increased life span): 321%
[3]; [5]
  50% Treatment Days (median survival day of treated group): 504 days
  % ILS (increased life span): 3500%

## Peginterferon alfa-2a
[1]; [6]
  # animals ≧ 20% BWL: 0
  % Change in Body Weight at end of Study Day 19: 8.1%
  Max % Weight Gain: 8.1%
  Max % Weight Loss: 3.7%
  Mortality: 0
[1]; [7]
  # animals ≧ 20% BWL: 0
  % Change in Body Weight at end of Study Day 18: 2.7%
  Max % Weight Gain: 2.7%
  Max % Weight Loss: 0.7%
  Mortality: 0
[2]; [6]
  % Inhibition end of study Day: 19: regression
  % T/C end of study Day: 19: 0%
  % Tumor Growth Inhibition: >100%
  Average % Regression per Group: 6%
  Mean Tumor Volume End Study DAY: 19: 122.93 mm^3
  Complete Regression: 1
  Partial Regression: 6
[2]; [7]
  % Inhibition end of study Day: 18: 98%
  % T/C end of study Day: 18: 2%
  % Tumor Growth Inhibition: 98%
  Mean Tumor Volume End Study DAY: 18: 193.98 mm^3
  Complete Regression: 3
  Partial Regression: 2
[3]; [6]
  50% Treatment Days (median survival day of treated group): 30 days
  % ILS (increased life span): 114%
[3]; [7]
  50% Treatment Days (median survival day of treated group): 34 days
  % ILS (increased life span): 143%
